Test results from patent US11014904B2, “1,2,4-triazine-3-amine derivative, preparation method therefor, and use thereof in medicine” (Jiangsu Hengrui Medicine Co., Ltd., priority 2017, dated 2021).

Columns and labels:
[1] = molecular target: T1, adenosine A2a receptor (A2aR) (Homo sapiens, UniProt P29274); experiment: Inhibition of the adenosine A2a receptor cAMP signaling pathway in CHO-K1/A2aR cells (HTRF); format: cell-based; conditions: for IC50: CHO-K1/A2aR cells, cAMP, Table 1
T1 construct: expressed in transfected cells; host or cells: CHO-K1
T1 sequence (P29274 whole entry): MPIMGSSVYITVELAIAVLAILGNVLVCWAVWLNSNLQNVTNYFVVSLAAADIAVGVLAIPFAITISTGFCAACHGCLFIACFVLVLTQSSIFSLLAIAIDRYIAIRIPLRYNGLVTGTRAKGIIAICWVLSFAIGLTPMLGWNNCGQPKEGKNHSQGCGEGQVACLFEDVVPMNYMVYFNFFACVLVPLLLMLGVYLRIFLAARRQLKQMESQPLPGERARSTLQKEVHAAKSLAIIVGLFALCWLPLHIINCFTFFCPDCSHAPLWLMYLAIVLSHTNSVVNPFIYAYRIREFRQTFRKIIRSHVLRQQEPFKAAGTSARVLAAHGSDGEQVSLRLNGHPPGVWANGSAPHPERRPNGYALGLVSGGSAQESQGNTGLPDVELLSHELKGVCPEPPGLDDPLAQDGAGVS
Excerpt: (§1) Determination of the inhibition activity of the compounds of the present invention on the adenosine A2a receptor (A2aR) cAMP signaling pathway, the adenosine A2b receptor (A2bR) cAMP signaling pathway, the adenosine A1 receptor (A1R) cAMP signaling pathway and the adenosine A3 receptor (A3R) cAMP signaling pathway.
(§2) The inhibition activity of the compounds of the present invention on the adenosine A2a receptor (A2aR) cAMP signaling pathway, the adenosine A2b receptor cAMP signaling pathway, the adenosine A1 receptor cAMP signaling pathway and the adenosine A3 receptor cAMP signaling pathway was determined by the following method. The experimental method is briefly described as follows:
2.1 Adenosine A2a receptor
CHO-K1/A2aR cells were cultured in DMEM/F12 medium containing 10% fetal bovine serum and 800 μg/ml bleomycin. The cells were digested with the cell separation buffer during the experiment. The cells were resuspended in the balanced salt buffer containing 20 mM HEPES and 0.1% bovine serum albumin and counted, and the cell density was adjusted to 10^6 cells/ml. In the 384-well plate, each well was added with 5 μl of cell suspension, and 2.5 μl of test compound (4× concentration) formulated with the balanced salt buffer containing 20 mM HEPES, 0.1% bovine serum albumin, 54 μM rolipram and 2.7 U/ml adenosine deaminase, and the plate was incubated at room temperature for 30 minutes. Each well was then added with 2.5 μl of […] (4× concentration) formulated with the balanced salt buffer containing 20 mM HEPES, 0.1% bovine serum albumin, 54 μM rolipram and 2.7 U/ml adenosine deaminase, and the plate was incubated at room temperature for 30 minutes. The final concentrations of the compounds were: 10000, 2000, 400, 80, 16, 3.2, 0.64, 0.128, 0.0256, 0.00512, and 0.001024 nM. The final concentration of […] was 20 nM. Intracellular cAMP concentration was detected with the cAMP dynamic 2 kit. cAMP-d2 and Anti-cAMP-Eu-Cryptate were diluted respectively with the cAMP lysis buffer at a ratio of 1:4. Each well was added with 5 μl of diluted cAMP-d2, followed by addition of 5 μl of diluted Anti-cAMP-Eu-Cryptate, and the plate was incubated at room temperature in the dark for 1 hour. The HTRF signal values were read by the PHERAstar multi-function microplate reader.

[2] = molecular target: T2, adenosine A1 receptor (A1R) (Homo sapiens, UniProt P30542); experiment: Inhibition of the adenosine A1 receptor cAMP signaling pathway in CHO-K1/A1R cells (HTRF); format: cell-based; conditions: for IC50: CHO-K1/A1R cells, cAMP, forskolin 10 μM, CPA 10 nM; for IC50 ratio (A1R/A2aR): selectivity A1R over A2aR
T2 construct: expressed in transfected cells; host or cells: CHO-K1
T2 sequence (P30542 1-326): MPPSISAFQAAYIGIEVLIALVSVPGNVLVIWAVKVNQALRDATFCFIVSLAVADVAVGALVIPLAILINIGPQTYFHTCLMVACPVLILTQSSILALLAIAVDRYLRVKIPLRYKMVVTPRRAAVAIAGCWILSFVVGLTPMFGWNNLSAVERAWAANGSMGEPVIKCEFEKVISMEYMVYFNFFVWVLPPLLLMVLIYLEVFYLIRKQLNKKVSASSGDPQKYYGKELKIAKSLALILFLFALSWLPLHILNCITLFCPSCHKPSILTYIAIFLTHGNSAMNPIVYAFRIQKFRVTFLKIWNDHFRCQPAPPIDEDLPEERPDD
Excerpt: as §1, §2
2.3 Adenosine A1 Receptor
CHO-K1/A1R cells were cultured in DMEM/F12 medium containing 10% fetal bovine serum and 1 mg/ml G418. The cells were digested with the cell separation buffer during the experiment. The cells were then resuspended in the balanced salt buffer containing 20 mM HEPES and 0.1% bovine serum albumin and counted, and the cell density was adjusted to 5×10^5 cells/ml. In the 384-well plate, each well was added with 12.5 μl of cell suspension, and 6.25 μl of test compound (4× concentration) formulated with the balanced salt buffer containing 20 mM HEPES, 0.1% bovine serum albumin, 54 μM rolipram and 2.7 U/ml adenosine deaminase, and the plate was incubated at room temperature for 30 minutes. Each well was then added with 6.25 μl of forskolin and N6-cyclopentyladenosine (4× concentration) formulated with the balanced salt buffer containing 20 mM HEPES, 0.1% bovine serum albumin, 54 μM rolipram and 2.7 U/ml adenosine deaminase, and the plate was incubated at room temperature for 30 minutes. The final concentrations of the compounds were: 100000, 10000, 1000, 100, 10, 1, 0.1 and 0 nM. The final concentrations of forskolin was 10 μM. The final concentrations of CPA was 10 nM. Intracellular cAMP concentration was detected with the cAMP dynamic 2 kit. cAMP-d2 and Anti-cAMP-Eu-Cryptate were diluted respectively with the cAMP lysis buffer at a ratio of 1:4. Each well was added with 12.5 μl of diluted cAMP-d2, followed by addition of 12.5 μl of diluted Anti-cAMP-Eu-Cryptate, and the plate was incubated at room temperature in the dark for 1 hour. The HTRF signal values were read by the PHERAstar multi-function microplate reader.

Nc1nnc(-c2cc(F)c3ncccc3c2)c(-c2ccccc2)n1 [Example 2, 6-(8-Fluoroquinolin-6-yl)-5-phenyl-1,2,4-triazin-3-amine]
IC50 ([1]; NECA 20 nM): 0.6 nM | IC50 [2]: 133 nM | IC50 ratio (A1R/A2aR) [2]: 221

Nc1nnc(-c2ccc3ncccc3c2)c(-c2ccccc2)n1 [Example 3, 5-Phenyl-6-(quinolin-6-yl)-1,2,4-triazin-3-amine]
IC50 ([1]; NECA 20 nM): 0.7 nM | difference in inhibition activity on the adenosine A2a receptor versus Comparative Example 1 ([1]; compared with Comparative Example 1): 225 times | IC50 [2]: 97 nM | IC50 ratio (A1R/A2aR) [2]: 139

Cc1ncnc2ccc(-c3nnc(N)nc3-c3ccccc3)cc12 [Example 15, 6-(4-Methylquinazolin-6-yl)-5-phenyl-1,2,4-triazin-3-amine]
IC50 ([1]; NECA 20 nM): 0.1 nM | IC50 [2]: 248 nM | IC50 ratio (A1R/A2aR) [2]: 2484

Cc1ccnc2c(F)cc(-c3nnc(N)nc3-c3ccccc3)cc12 [Example 16, 6-(8-Fluoro-4-methylquinolin-6-yl)-5-phenyl-1,2,4-triazin-3-amine]
IC50 ([1]; NECA 20 nM): 0.2 nM | IC50 [2]: 161 nM | IC50 ratio (A1R/A2aR) [2]: 803

Cc1ccnc2ccc(-c3nnc(N)nc3-c3ccccc3F)cc12 [Example 17, 5-(2-Fluorophenyl)-6-(4-methylquinolin-6-yl)-1,2,4-triazin-3-amine]
IC50 ([1]; NECA 20 nM): 0.5 nM | IC50 [2]: 1350 nM | IC50 ratio (A1R/A2aR) [2]: 2698

Cc1ccnc2ccc(-c3nnc(N)nc3-c3ccc(F)cc3)cc12 [Example 18, 5-(4-Fluorophenyl)-6-(4-methylquinolin-6-yl)-1,2,4-triazin-3-amine]
IC50 ([1]; NECA 20 nM): 0.2 nM | IC50 [2]: 190 nM | IC50 ratio (A1R/A2aR) [2]: 948

Cc1ncnc2ccc(-c3nnc(N)nc3-c3ccc(F)cc3)cc12 [Example 19, 5-(4-Fluorophenyl)-6-(4-methylquinazolin-6-yl)-1,2,4-triazin-3-amine]
IC50 ([1]; 20 nM): 0.4 nM | IC50 [2]: 1420 nM | IC50 ratio (A1R/A2aR) [2]: 3557

Cc1ccnc2c(F)cc(-c3nnc(N)nc3-c3ccc(F)cc3)cc12 [Example 20, 6-(8-Fluoro-4-methylquinolin-6-yl)-5-(4-fluorophenyl)-1,2,4-triazin-3-amine]
IC50 ([1]; NECA 20 nM): 1.5 nM | IC50 [2]: 617 nM | IC50 ratio (A1R/A2aR) [2]: 411

[2H]C([2H])([2H])c1ccnc2ccc(-c3nnc(N)nc3-c3ccc(F)cc3)cc12 [Example 22, 5-(4-Fluorophenyl)-6-[4-(trideuteromethyl)-6-quinolinyl]-1,2,4-triazin-3-amine]
IC50 ([1]; NECA 20 nM): 0.3 nM | IC50 [2]: 100 nM | IC50 ratio (A1R/A2aR) [2]: 334

Cc1ccnc2c(F)cc(-c3nnc(N)nc3-c3ccccc3F)cc12 [Example 31, 6-(8-Fluoro-4-methylquinolin-6-yl)-5-(2-fluorophenyl)-1,2,4-triazin-3-amine]
IC50 ([1]; NECA 20 nM): 3.8 nM | IC50 [2]: 1640 nM | IC50 ratio (A1R/A2aR) [2]: 431

CCc1ccnc2ccc(-c3nnc(N)nc3-c3ccc(F)cc3)cc12 [Example 44, 6-(4-Ethylquinolin-6-yl)-5-(4-fluorophenyl)-1,2,4-triazin-3-amine]
IC50 ([1]; NECA 20 nM): 0.8 nM | IC50 [2]: 646 nM | IC50 ratio (A1R/A2aR) [2]: 807

Cc1ncnc2c(F)cc(-c3nnc(N)nc3-c3ccccc3)cc12 [Example 45, 6-(8-Fluoro-4-methylquinazolin-6-yl)-5-phenyl-1,2,4-triazin-3-amine]
IC50 ([1]; NECA 20 nM): 1.2 nM | IC50 [2]: 930 nM | IC50 ratio (A1R/A2aR) [2]: 775

[2H]C([2H])([2H])c1ncnc2ccc(-c3nnc(N)nc3-c3ccc(F)cc3)cc12 [Example 52, 5-(4-Fluorophenyl)-6-(4-(methyl-d3)quinazolin-6-yl)-1,2,4-triazin-3-amine]
IC50 ([1]; 20 nM): 0.9 nM | IC50 [2]: 876 nM | IC50 ratio (A1R/A2aR) [2]: 973
